“Also recorded” adds a separate entry of the source.
Key:
[1] = test system: adult rat primary β-cells; assay: Rat β-cell proliferation assay, EdU incorporation, dissociated islets; assay type: cell-based; conditions: for primary rat β-cell proliferation, combination of Chiron99021 with TG003: 4 days; for rat β-cell proliferation (EdU incorporation), in words: dispersed rat islets; for β-cell proliferation in combination with GNF4877: sub-EC50 GNF4877, Figs 7a,d (human and rat β-cells)
Method: (§1) Rat or human β-cell proliferation assays were performed using dissociated primary rat or human islets. Islets were treated with the indicated compounds in the presence of EdU for 4 days before fixing and staining. […] For intact islet assays, primary human islets were treated for 7 or 8 days (as indicated in the legend). Rat dissociated islets were cultured in RPMI medium containing 10% FBS and human dissociated islets were cultured in PIM-S media (Prodo laboratories) with 10% human […].

[2] = test system: β-cells from dissociated adult primary human islets; assay: Human β-cell proliferation assay, EdU incorporation, dissociated islets; assay type: cell-based; conditions: for human β-cell proliferation (EdU incorporation), in words: dispersed human islets; for effect of co-treatment on human β-cell proliferation induced by GNF4877: GNF4877 2 μM, FK506 12 nM to 1 μM
Method: as §1

[3] = target: Gsk3b (Homo sapiens, UniProt P49841); assay: Gsk3b biochemical kinase assay
[4] = test system: β-catenin nuclear localization in primary rat islets; assay: β-Catenin nuclear translocation; assay type: cell-based
Method: At the end of the treatment, cells were fixed with 4% paraformaldehyde, blocked and permeabilized, and stained by standard immunofluorescence techniques for β-catenin (Cell signaling, #9562L; dilution 1:500), NFATc1 (Santa Cruz, rabbit polyclonal, SC-7294; dilution 1:200) or NFAT3c (Santa Cruz, SC-8321; dilution 1:200) and nuclear DNA was stained with DAPI (Molecular Probes; dilution 1:1,000). EdU incorporation was measured by click reaction with AlexaFluor-647-azide (Invitrogen). Plates were imaged with confocal microscope and analysed by Metamorph (Molecular Devices).

[5] = target: T1, Dyrk1a (Homo sapiens, UniProt Q13627); assay: Dyrk1a kinase activity, biochemical assay
T1 construct: purchased Ambit KINOMEscan

[6] = test system: rat islet cells; assay: eFluor670 vital dye dilution (cell division); assay type: cell-based; conditions: 5 days treatment
Text: The extent of proliferation of human islet cells was too low to be detected with this method, consistent with the lower level of EdU incorporation induced in human islets.

Chain of Gsk3b (P49841 whole entry, species assumed): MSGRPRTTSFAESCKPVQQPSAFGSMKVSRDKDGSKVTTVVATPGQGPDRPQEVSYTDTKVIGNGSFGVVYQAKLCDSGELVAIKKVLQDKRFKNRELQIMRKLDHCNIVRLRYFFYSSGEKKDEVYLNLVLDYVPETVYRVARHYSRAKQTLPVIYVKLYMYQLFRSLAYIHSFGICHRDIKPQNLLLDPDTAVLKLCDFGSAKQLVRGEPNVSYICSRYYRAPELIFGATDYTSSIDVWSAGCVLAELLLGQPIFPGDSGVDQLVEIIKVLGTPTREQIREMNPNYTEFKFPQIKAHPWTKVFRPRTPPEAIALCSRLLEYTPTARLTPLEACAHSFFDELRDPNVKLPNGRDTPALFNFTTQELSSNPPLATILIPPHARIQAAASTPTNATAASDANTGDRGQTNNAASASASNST

| Compound | rat β-cell proliferation (EdU incorporation), in words [1] | human β-cell proliferation (EdU incorporation), in words [2] | further results |
| --- | --- | --- | --- |
| CCN1/C(=C/C(C)=O)Sc2ccc(OC)cc21 [TG003] | induced β-cell proliferation | induced β-cell proliferation | primary rat β-cell proliferation, combination of Chiron99021 with TG003 [1]: additive induction of primary rat β-cell proliferation |
| COc1ccc2c(c1)[nH]c1c(C)nccc12 [harmine] | induced β-cell proliferation | induced β-cell proliferation | – |
| Cc1cnc(-c2cnc(NCCNc3ccc(C#N)cn3)nc2-c2ccc(Cl)cc2Cl)[nH]1 [Chiron99021] | significantly lower extent than GNF7156 and GNF4877 | without any significant effects on human β-cell proliferation | primary rat β-cell proliferation, combination of Chiron99021 with TG003 [1]: additive induction of primary rat β-cell proliferation |
| Nc1ncc(-c2ccccc2)nc1C(=O)Nc1ccccc1N1CCC(C(=O)O)CC1 [GNF6324] | completely inactive; also recorded: did not induce EdU incorporation in rat β-cells | completely inactive | potency on Gsk3b, in words [3]: retained similar potency to GNF7156 on Gsk3b; β-catenin nuclear translocation [4]: capable of inducing nuclear localization of β-catenin; IC50 [5]: > 50 µM; eFluor670 staining intensity relative to control [6]: nor cause a decrease in eFluor670 staining |
| cyclosporin A [CsA] | – | – | effect of co-treatment on human β-cell proliferation induced by GNF4877 [2]: reduced by co-treatment |
| COc1ccc(Cl)cc1C(=O)NCCc1ccc(S(=O)(=O)NC(=O)NC2CCCCC2)cc1 [glibenclamide] | – | – | β-cell proliferation in combination with GNF4877 [1]: showed additive activity with GNF4877 |
| [Cl-].[Li+] [LiCl] | significantly lower extent than GNF7156 and GNF4877 | without any significant effects on human β-cell proliferation | – |
| COC(=O)C1=C(C)NC(C)=C([N+](=O)[O-])C1c1ccccc1C(F)(F)F (stereo not drawn) [Bay K8644] | – | – | β-cell proliferation in combination with GNF4877 [1]: showed additive activity with GNF4877 |
| O=C1Cc2c([nH]c3ccc(Br)cc23)-c2ncccc2N1 [1-Akp] | significantly lower extent than GNF7156 and GNF4877 | without any significant effects on human β-cell proliferation | – |
| C=CC[C@@H]1/C=C(\C)C[C@H](C)C[C@H](OC)[C@H]2O[C@@](O)(C(=O)C(=O)N3CCCC[C@H]3C(=O)O[C@H](/C(C)=C/[C@@H]3CC[C@@H](O)[C@H](OC)C3)[C@H](C)[C@@H](O)CC1=O)[C@H](C)C[C@@H]2OC [FK506] | – | – | effect of co-treatment on human β-cell proliferation induced by GNF4877 [2]: reduced by co-treatment |
| Nc1ncnc2c1c(I)cn2[C@@H]1O[C@H](CO)[C@@H](O)[C@H]1O [5-IT] | induced β-cell proliferation | induced β-cell proliferation | – |

— PMC4639830, “Inhibition of DYRK1A and GSK3B induces human β-cell proliferation” (Nature Communications, 2015)
